Reference: PMC4038355 (Molecular microbiology, 2014)

Molecular target: T1, TstT (LVIS_0852) (Levilactobacillus brevis, UniProt Q03S28)
T1 sequence (Q03S28 1-120): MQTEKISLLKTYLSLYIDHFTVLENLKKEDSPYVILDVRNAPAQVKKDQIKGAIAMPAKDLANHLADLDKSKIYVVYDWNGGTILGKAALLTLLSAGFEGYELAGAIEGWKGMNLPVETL
Assay type: biochemical

O=S(O)O [sulfite]
% decrease at 100 μM: 40%
